From ChEMBL document CHEMBL1201862, “PubChem BioAssay data set” (2004)
Active and inactive are the calls of the source.

Experiments:
[1] = molecular target: T1, Adenosylmethionine-8-amino-7-oxononanoate aminotransferase (Mycobacterium tuberculosis, UniProt P9WQ81); assay: Mycobacterium tuberculosis BioA enzyme inhibitor Measured in Biochemical System Using Plate Reader - 2163-02_Inhibitor_Dose_CherryPick_Activity.; type: functional, Mycobacterium tuberculosis UT205
T1 sequence (P9WQ81 whole entry): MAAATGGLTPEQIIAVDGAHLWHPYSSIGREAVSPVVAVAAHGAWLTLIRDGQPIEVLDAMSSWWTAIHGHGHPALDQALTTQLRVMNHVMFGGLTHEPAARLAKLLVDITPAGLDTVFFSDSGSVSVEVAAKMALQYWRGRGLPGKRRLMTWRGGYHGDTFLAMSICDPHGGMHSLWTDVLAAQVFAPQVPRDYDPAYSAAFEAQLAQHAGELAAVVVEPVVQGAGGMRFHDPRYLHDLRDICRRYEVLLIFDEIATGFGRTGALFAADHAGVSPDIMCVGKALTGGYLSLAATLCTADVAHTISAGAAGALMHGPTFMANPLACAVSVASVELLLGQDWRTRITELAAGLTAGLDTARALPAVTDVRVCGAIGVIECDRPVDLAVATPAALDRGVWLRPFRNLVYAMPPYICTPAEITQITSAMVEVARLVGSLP

cells [2] = type: functional, cell-based
cells [3] = type: functional, cell-based; remark: listed apart in the source
cells [4] = assay: cells
[5] = molecular target: T2, Oxysterols receptor LXR-beta (Homo sapiens, UniProt P55055); type: functional, cell-based;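 further: Cell-based luminescence dose-response assay of agonist activity at LXR, run as a confirmatory counterscreen to a daf-12 agonist screen; HEK293 cells with Gal4-LXR fusion and GAL4-driven luciferase reporter; agonist potency from rising luciferase signal of a Gal4-LXR reporter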
T2 sequence (P55055 whole entry): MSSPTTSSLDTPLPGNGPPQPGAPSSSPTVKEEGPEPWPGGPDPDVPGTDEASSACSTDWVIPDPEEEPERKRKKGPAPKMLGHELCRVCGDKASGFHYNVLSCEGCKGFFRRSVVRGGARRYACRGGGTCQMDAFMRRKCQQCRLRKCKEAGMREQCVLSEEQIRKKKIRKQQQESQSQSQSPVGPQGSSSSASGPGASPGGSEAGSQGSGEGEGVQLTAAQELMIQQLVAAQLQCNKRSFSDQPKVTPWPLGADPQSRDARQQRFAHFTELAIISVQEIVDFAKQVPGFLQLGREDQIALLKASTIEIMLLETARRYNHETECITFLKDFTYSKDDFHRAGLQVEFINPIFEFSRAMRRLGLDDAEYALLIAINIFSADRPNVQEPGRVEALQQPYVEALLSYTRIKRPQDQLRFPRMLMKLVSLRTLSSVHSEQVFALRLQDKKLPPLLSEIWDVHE

[6] = Trypanosoma cruzi growth suppression in host cells – NIH3T3 host cells, beta-gal luminescence, confirmation (AID 2044); type: functional, cell-based;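 further: intracellular parasites grown in NIH/3T3 mouse fibroblasts as host cells; luminescent beta-galactosidase reporter signal from transgenic T. cruzi replicating inside host cells; inhibitors lower the luminescence signal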
[7] = NIH3T3 cell viability loss – ATP luminescence, mouse fibroblasts, counter-screen, dose response (AID 2010); type: functional, cell-based;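 further: cells exposed to compound for about 90 hours before reading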
[8] = microbe, parasite or virus in culture; type: functional; settings: Mycobacterium tuberculosis
[9] = molecular target: Induced myeloid leukemia cell differentiation protein Mcl-1 (Homo sapiens, UniProt Q07820); type: functional
Sequence of Induced myeloid leukemia cell differentiation protein Mcl-1 (Q07820 whole entry): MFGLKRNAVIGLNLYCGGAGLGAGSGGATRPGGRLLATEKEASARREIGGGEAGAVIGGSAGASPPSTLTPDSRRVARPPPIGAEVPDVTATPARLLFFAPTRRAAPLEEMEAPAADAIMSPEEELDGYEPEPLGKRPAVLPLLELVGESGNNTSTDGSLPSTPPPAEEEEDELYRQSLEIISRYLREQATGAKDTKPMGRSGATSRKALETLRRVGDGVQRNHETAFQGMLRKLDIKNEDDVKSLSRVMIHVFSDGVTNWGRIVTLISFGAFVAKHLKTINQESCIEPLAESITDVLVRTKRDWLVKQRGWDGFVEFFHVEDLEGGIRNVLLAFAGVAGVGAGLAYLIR

[10] = HPDE-C7 pancreatic duct cell viability loss – fluorescence, HTS (AID 430); type: functional, cell-based; settings: Homo sapiens
[11] = viability loss of HPDE-C7K cells – cell-based, fluorescence, HTS, primary screen (AID 431); type: functional; settings: Homo sapiens
[12] = viability of HCT116 lacking mutant beta-catenin – cell-based, human colon tumor, dose response (AID 1045); type: functional;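 further: HCT116 colon tumor cells with beta catenin knocked out; cells exposed to compound for 60 hours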
[13] = viability of PTEN-deleted HCT116 cells – cell-based, HCT116 PTEN knockout, dose response (AID 1047); type: functional;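 further: HCT116 colon tumor cells with PTEN knocked out; cells exposed to compound for 60 hours before readout; potency for loss of cell viability measured by luminescence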
Fatty acid synthase [14] = molecular target: T3, Fatty acid synthase (Homo sapiens, UniProt P49327); assay: inhibition of human FAS-TE enzyme activity – biochemical, endpoint fluorescence intensity, uHTS hits, dose response (AID 624327); type: functional;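 further: fluorescence from hydrolysis of an O-methyl fluorescein acyl ester substrate by the enzyme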
T3 sequence (P49327 whole entry): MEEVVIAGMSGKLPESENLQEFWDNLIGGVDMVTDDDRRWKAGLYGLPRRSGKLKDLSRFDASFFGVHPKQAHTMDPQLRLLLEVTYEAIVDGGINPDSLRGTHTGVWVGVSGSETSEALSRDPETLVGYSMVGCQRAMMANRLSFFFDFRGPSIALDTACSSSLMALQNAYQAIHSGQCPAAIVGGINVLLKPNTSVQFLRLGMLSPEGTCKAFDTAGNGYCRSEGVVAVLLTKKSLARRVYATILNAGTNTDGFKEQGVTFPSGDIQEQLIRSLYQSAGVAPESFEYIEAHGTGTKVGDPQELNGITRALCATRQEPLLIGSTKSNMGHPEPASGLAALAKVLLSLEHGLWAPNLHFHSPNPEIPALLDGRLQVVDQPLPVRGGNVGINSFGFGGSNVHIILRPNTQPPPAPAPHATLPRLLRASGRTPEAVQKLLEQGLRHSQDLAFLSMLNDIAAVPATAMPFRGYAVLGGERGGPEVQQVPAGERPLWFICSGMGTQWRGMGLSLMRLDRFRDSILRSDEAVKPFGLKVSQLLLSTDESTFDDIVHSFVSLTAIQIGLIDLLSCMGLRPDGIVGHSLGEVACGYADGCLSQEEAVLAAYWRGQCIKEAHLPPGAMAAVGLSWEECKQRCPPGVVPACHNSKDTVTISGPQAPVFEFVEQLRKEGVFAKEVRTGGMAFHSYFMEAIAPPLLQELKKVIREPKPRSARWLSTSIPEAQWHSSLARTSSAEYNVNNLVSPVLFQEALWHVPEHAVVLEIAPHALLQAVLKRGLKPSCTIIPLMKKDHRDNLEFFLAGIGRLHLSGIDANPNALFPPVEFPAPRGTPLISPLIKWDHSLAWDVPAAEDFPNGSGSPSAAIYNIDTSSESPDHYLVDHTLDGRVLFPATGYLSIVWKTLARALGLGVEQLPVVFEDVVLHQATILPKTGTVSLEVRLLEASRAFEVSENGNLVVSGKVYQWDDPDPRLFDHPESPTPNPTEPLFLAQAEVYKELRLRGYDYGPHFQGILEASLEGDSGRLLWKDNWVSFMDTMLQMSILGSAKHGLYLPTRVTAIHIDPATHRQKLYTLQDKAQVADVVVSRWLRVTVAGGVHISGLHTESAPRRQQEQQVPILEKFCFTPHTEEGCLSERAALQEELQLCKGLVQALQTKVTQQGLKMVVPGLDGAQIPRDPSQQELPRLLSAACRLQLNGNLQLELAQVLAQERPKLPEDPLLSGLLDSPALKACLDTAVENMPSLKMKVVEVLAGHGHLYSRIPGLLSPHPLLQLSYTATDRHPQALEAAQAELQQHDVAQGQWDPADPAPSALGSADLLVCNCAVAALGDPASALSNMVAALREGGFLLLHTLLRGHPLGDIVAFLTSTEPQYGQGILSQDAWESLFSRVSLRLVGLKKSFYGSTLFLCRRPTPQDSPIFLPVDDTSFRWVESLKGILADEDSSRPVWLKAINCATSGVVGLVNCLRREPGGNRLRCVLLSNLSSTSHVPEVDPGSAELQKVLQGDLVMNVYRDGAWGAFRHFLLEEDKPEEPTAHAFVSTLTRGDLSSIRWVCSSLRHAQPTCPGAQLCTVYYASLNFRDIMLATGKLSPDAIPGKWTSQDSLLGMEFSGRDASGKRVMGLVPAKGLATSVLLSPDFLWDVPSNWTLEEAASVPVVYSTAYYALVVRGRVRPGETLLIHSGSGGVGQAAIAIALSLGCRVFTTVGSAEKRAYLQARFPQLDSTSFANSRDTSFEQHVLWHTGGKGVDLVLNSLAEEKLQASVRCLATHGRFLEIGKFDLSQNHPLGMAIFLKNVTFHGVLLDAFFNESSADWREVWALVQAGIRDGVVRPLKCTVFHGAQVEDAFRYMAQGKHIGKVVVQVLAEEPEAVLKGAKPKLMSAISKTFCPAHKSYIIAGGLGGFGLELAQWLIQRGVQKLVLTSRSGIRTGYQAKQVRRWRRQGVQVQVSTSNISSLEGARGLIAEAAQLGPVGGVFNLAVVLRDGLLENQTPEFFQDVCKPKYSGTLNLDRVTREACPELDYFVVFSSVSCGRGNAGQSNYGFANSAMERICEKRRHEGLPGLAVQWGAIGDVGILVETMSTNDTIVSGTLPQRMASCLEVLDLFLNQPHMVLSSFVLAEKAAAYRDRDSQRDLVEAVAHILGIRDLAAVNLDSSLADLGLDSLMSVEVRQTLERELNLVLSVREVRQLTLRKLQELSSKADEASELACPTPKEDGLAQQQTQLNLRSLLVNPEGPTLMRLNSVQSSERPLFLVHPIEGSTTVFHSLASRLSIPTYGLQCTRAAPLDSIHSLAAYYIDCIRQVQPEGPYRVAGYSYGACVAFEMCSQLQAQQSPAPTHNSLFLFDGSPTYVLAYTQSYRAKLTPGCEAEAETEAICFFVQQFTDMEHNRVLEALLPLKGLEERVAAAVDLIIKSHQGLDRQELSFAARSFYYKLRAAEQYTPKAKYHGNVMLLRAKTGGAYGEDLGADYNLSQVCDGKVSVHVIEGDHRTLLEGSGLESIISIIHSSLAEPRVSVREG

Nonstructural protein 1 = Nonstructural protein 1 (Influenza A virus, UniProt Q194T2); type: functional, Influenza A virus (A/California/07/2009(H1N1))
Sequence of Nonstructural protein 1 (Q194T2 whole entry): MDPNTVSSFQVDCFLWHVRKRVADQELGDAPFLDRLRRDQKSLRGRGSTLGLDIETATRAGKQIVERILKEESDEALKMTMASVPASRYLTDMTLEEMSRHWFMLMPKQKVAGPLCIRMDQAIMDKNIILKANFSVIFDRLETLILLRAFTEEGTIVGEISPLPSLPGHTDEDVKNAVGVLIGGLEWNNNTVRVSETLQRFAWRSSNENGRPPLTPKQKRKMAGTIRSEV

Fatty acid synthase [15] = molecular target: T3, Fatty acid synthase; assay: inhibition of human FAS-TE enzyme activity – biochemical, kinetic fluorescence intensity, dose response (AID 624326); type: functional;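 further: rate of fluorescence rise from hydrolysis of a fluorogenic O-methyl fluorescein ester substrate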
[16] = molecular target: T4, Heat shock factor protein 1 (Mus musculus, UniProt P38532); assay: decrease of HSF1-responsive luciferase luminescence – cell-based, NIH3T3, dose retest, confirmation (AID 2382); type: functional;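 further: NIH3T3 fibroblasts with HSF1-driven luciferase reporter stressed by proteasome inhibitor MG132; luminescence from HSF1-driven luciferase expression after 8 hours of MG132 stress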
T4 sequence (P38532 whole entry): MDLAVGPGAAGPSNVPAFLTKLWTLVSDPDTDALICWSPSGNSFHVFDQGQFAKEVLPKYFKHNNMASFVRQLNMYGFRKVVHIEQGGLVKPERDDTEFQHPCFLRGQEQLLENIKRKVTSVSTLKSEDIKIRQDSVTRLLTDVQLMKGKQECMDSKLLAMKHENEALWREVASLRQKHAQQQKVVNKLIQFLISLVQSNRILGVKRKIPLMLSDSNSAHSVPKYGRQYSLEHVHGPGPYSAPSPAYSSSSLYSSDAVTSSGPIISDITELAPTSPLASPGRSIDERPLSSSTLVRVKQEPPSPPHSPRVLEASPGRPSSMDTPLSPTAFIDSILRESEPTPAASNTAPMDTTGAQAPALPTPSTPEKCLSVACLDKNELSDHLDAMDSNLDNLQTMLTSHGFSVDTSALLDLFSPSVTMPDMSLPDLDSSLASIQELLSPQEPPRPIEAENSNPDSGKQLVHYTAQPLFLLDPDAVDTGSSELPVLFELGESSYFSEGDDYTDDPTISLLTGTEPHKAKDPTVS

CAAX prenyl protease 2 = molecular target: T5, CAAX prenyl protease 2 (Saccharomyces cerevisiae S288c, UniProt Q03530); type: biochemical
T5 sequence (Q03530 whole entry): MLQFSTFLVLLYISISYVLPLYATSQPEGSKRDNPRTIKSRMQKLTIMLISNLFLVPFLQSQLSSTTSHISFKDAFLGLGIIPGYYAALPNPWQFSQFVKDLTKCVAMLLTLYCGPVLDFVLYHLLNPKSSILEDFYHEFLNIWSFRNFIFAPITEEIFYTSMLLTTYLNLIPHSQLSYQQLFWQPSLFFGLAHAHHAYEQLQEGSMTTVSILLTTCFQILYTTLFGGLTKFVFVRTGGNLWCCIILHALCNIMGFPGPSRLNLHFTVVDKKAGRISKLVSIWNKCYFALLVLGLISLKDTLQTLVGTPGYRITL

[17] = fluconazole-exposed Candida albicans growth modulators – fluorescence, retest, confirmation (AID 2467); type: functional, cell-based
[18] = molecular target: T6, Replicative DNA helicase DnaB (Mycobacterium tuberculosis, UniProt P9WMR3); assay: DnaB intein splicing inhibitors, dose response, biochemical, cell-free fluorescence (AID 449749); type: functional
T6 sequence (P9WMR3 whole entry): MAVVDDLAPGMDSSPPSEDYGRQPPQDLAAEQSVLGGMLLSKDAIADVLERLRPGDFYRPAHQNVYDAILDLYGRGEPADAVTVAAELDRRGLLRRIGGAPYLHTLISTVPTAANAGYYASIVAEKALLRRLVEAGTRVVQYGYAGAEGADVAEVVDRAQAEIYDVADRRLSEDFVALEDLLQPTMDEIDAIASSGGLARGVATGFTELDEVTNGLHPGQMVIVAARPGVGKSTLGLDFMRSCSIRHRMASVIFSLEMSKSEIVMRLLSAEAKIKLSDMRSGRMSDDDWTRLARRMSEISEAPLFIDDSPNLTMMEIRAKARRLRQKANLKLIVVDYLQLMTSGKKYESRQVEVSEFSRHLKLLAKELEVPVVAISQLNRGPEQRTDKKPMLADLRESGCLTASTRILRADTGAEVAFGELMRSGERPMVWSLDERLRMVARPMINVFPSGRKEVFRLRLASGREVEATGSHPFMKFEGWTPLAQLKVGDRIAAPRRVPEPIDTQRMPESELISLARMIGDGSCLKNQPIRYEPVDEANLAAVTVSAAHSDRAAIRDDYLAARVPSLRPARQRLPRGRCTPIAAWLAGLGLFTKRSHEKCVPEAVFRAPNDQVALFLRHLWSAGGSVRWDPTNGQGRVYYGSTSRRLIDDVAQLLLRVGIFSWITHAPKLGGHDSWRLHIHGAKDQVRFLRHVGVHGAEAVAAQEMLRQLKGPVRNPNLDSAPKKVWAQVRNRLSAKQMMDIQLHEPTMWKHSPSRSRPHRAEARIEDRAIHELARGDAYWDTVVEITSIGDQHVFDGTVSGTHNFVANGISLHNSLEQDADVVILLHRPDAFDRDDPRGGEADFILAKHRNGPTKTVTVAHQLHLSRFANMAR

[19] = NIH-3T3 fibroblast cytotoxicity, dose response, cytotoxicity control, cell-based, fluorescence, Alamar Blue, secondary assay (AID 2327); type: functional;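 further: NIH-3T3 mouse fibroblasts cultured with fluconazole at 8 µg/mL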
Protein RecA = molecular target: T7, Protein RecA (Mycobacterium tuberculosis, UniProt P9WHJ3); assay: Fluorescence Cell-Free Homogeneous Dose Retest to Identify Inhibitors of RecA-Intein Splicing Activity. [Related pubchem assays (depositor defined):AID2097, AID2223, AID489010, AID492950]; type: functional
T7 sequence (P9WHJ3 whole entry): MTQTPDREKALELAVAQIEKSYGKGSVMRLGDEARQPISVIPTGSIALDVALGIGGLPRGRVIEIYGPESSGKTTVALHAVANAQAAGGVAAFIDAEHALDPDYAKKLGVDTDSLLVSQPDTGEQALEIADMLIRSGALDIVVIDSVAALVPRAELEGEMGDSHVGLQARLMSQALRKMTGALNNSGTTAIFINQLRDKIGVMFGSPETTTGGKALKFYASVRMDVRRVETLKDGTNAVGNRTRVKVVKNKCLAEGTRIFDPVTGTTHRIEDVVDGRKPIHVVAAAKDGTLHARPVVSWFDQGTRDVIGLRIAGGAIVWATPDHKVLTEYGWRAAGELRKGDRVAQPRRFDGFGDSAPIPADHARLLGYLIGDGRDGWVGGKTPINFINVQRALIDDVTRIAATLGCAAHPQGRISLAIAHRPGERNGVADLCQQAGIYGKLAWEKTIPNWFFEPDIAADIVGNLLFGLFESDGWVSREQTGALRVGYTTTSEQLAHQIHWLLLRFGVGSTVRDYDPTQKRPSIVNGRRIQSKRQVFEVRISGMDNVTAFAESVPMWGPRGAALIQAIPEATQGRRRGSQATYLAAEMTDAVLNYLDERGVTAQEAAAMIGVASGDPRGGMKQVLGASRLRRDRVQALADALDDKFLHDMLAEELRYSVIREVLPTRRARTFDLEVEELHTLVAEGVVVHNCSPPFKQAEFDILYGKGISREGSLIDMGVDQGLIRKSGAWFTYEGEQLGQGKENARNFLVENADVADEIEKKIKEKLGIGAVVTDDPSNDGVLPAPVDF

HEK293 = assay: EBV LMP1 TES2 canonical NF-kB signalling blockers – cell-based, HEK293, luciferase, cherry-pick, dose response (AID 588343); type: functional; settings: Homo sapiens

Cc1ccc(-c2nnc(N3CCN(C(=O)CSc4nc[nH]n4)CC3)c3ccccc23)cc1
AC50 [1]: 1.07 µM (active)

COc1ccc(C2CC(c3cccs3)=NN2C(=O)CSc2nc(=O)n3cc(C)ccc3n2)cc1 (stereo unspecified)
EC50 (cells [2]): > 350 µM (not active) | EC50 (cells [3]): > 350 µM (not active)

Cc1ccc(Cc2c(C)nc3nc(SCC(=O)NCCCN4CCCCC4)nn3c2C)cc1
AC50 [1]: 11.1 µM (active)

N=C(NOC(=O)c1cccs1)c1ccc(Cl)cc1
EC50 (cells [2]): 7.41 µM (active) | EC50 (cells [3]): > 350 µM (not active)

CC(Oc1ccc2ccc(=O)oc2c1)C(=O)N1CCOCC1 (stereo unspecified)
AC50 [1]: 6.85 µM (active)

COc1ccc2oc(C(=O)Nc3ccccn3)c(C)c2c1
EC50 (cells [4]): > 67.5 µM (inactive) | EC50 [5]: > 67.5 µM (inactive)

Cc1cccc(-c2cc3c(N=O)c4ccccc4c-3[nH]n2)c1
EC50 (cells [4]): > 67.5 µM (inactive) | EC50 [6]: 4.86 µM (active) | EC50 [5]: > 67.5 µM (inactive) | EC50 [7]: > 60 µM (not active)

Oc1ccccc1NCC(O)Cn1ccc2ccccc21 (stereo unspecified)
CC50 [8]: > 40 µM (active) | IC50 [9]: 4.49 µM (active) | EC50 [10]: 12.8 µM (active) | EC50 [11]: 13.2 µM (active)

Cc1cc2oc3c(c(=O)c2cc1C)C(c1cccc(Br)c1)N(Cc1ccco1)C3=O (stereo unspecified)
EC50 [10]: > 20 µM (not active) | EC50 [12]: 8.39 µM (active) | EC50 [13]: 9.43 µM (active) | EC50 [11]: > 20 µM (not active)

COc1ccc(N=C(S)Nc2ccccn2)c(OC)c1
EC50 (cells [2]): 53.6 µM (active) | EC50 (cells [3]): > 350 µM (not active)

COc1cc(/C=N/NC(=O)c2cncc(Br)c2)cc([N+](=O)[O-])c1O
IC50 (Fatty acid synthase [14]): 18.7 µM (active) | IC50 (Nonstructural protein 1): 4.26 µM (active) | IC50 (Fatty acid synthase [15]): 9.66 µM (active) | EC50 [16]: 0.977 µM (active)

O=C(c1ccccc1F)N1CC[C@@H]2[C@H](CO)Nc3ccc(Br)cc3[C@@H]21
AC50 [1]: 1.81 µM (active)

CCOc1ccc(-c2c(C(=O)N/N=C/c3cccs3)nnn2-c2nonc2N)cc1
AC50 (CAAX prenyl protease 2): 5.5 µM (active)

CCN(CC)c1ccc(/C=N/Nc2nc(C)cc(O)n2)c(O)c1
EC50 [17]: 1.09 µM (active) | AC50 [18]: > 380 µM (inactive) | EC50 (cells [2]): > 350 µM (not active) | EC50 [19]: 3.13 µM (active) | EC50 (cells [3]): 6.92 µM (active) | EC50 (Protein RecA): 28 µM (active) | AC50 (HEK293): 1.75 µM (active)

COc1cccc(/C=N/NC(=O)CNC(=O)C(c2ccccc2)c2ccccc2)c1O
EC50 (cells [2]): > 350 µM (not active) | EC50 (cells [3]): 30.6 µM (active)

NC(=S)n1nc(-c2ccc([N+](=O)[O-])cc2)c(/N=N/c2ccc(Cl)cc2)c1O
IC50 [9]: > 54 µM (active) | IC50 (Fatty acid synthase [14]): 17.5 µM (active) | IC50 (Fatty acid synthase [15]): 9.27 µM (active)
